Where two headings read alike, the source gives them in different places.
Columns and labels:
human arginase II = molecular target: T1, human arginase II (Homo sapiens, UniProt P78540); assay: Arginase inhibition, QuantiChrom colorimetric urea assay, IC50 converted to Ki; assay type: biochemical
T1 sequence (P78540 23-354): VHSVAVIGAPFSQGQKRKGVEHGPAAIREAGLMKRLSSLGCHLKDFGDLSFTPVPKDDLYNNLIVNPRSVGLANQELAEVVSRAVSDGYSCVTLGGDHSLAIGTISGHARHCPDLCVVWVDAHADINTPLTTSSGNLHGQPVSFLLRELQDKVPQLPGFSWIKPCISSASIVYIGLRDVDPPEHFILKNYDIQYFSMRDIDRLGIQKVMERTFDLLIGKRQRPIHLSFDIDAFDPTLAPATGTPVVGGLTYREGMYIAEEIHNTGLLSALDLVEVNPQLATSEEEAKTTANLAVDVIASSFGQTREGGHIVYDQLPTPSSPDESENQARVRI
Method: (§1) For some compounds, their inhibitory potency at pH 7.5 was compared to the inhibitory potency of ABH at pH 7.5.
(§2) Quantitative determination of arginase activity was performed in a 96-well format by a colorimetric method using the QuantiChrom™ Arginase Assay Kit available from BioAssay Systems (Hayward, Calif., Catalog No. DARG-200) according to the manufacturer's protocol. Modifications were made to reagent quantities to suit the assaying of a highly purified sample.
(§3) The intensity of the color was directly proportional to the arginase activity in the sample.
(§4) The rate of urea production was measured in the presence of twelve different concentrations of each potential inhibitor compound. In a typical assay, seven different compounds were tested relative to a control inhibitor (e.g. ABH) against one enzyme (either human ArgI or human ArgII) at a particular pH (either 9.5 or 7.5). The pH of the solution was controlled using an appropriate pH buffering compound at 60 mM concentrations; for example, 60 mM glycine (pH 9.5) or 60 mM HEPES (pH 7.5). The half maximal inhibitory concentration (IC50) was determined by constructing a dose-response curve.

human arginase I = molecular target: T2, human arginase I (Homo sapiens, UniProt P05089); assay: as above; assay type: biochemical
T2 sequence (P05089 1-322): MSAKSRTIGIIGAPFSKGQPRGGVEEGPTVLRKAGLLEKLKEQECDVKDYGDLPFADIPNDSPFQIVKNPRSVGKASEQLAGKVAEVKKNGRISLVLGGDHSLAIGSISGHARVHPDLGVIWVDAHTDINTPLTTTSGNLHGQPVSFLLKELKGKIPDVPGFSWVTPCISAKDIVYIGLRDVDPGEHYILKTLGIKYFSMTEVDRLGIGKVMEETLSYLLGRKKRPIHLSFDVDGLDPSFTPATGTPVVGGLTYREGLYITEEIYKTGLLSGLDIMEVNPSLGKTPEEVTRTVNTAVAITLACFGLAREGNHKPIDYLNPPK
Method: as §1, §2, §3, §4

[1] = Table 3, pH 7.5, read-out: human Arginase II pH 7.5, Ki assigned value
[2] = Table 3, pH 9.5, read-out: human Arginase II pH 9.5, Ki assigned value
[3] = Table 3, pH 7.5, read-out: human Arginase I pH 7.5, Ki assigned value
[4] = Table 3, pH 9.5, read-out: human Arginase I pH 9.5, Ki assigned value
[5] = Table 2, pH 7.5, read-out: human arginase II pH 7.5, Ki assigned value
[6] = Table 2, pH 9.5, read-out: human arginase II pH 9.5, Ki assigned value
[7] = Table 2, pH 7.5, read-out: human arginase I pH 7.5, Ki assigned value
[8] = Table 2, pH 9.5, read-out: human arginase I pH 9.5, Ki assigned value

SMILES	Ki (human arginase II; [1]) [nM]	Ki (human arginase II; [2]) [nM]	Ki (human arginase I; [3]) [nM]	Ki (human arginase I; [4]) [nM]	Ki (human arginase II; [5]) [nM]	Ki (human arginase II; [6]) [nM]	Ki (human arginase I; [7]) [nM]	Ki (human arginase I; [8]) [nM]
CN1CCN(CCCC(N)(CCCCB(O)O)C(=O)O)C(c2ccccc2)C1 (stereo not drawn) [Example 46]	11 to 50	< 10	11 to 50	11 to 50	–	–	–	–
NC(CCCCB(O)O)(CCCN1CCC(Cc2ccc(F)c(F)c2)CC1)C(=O)O (stereo not drawn) [Example 28]	–	–	–	–	51 to 100	< 10	< 10	< 10
NC(CCCCB(O)O)(CCCN1CCN(c2ccc(Cl)c(Cl)c2)CC1)C(=O)O (stereo not drawn) [Example 16]	51 to 100	11 to 50	11 to 50	51 to 100	–	–	–	–
NC(CCCCB(O)O)(CCCCN1CCc2ccccc2C1)C(=O)O (stereo not drawn) [Example 96]	11 to 50	11 to 50	11 to 50	11 to 50	–	–	–	–
NC(CCCCB(O)O)(CCCN1CC(c2ccccc2)C1)C(=O)O (stereo not drawn) [Example 58]	11 to 50	11 to 50	< 10	11 to 50	–	–	–	–
NC(CCCCB(O)O)(CCC1CCCCN1Cc1ccc(F)c(F)c1)C(=O)O (stereo not drawn) [Example 21]	51 to 100	51 to 100	11 to 50	11 to 50	–	–	–	–
NC(CCCCB(O)O)(CCCN1CCCCC1c1ccc(F)cc1)C(=O)O (stereo not drawn) [Example 17]	–	–	–	–	101 to 250	11 to 50	< 10	11 to 50
NC(CCCCB(O)O)(CCC1CCCCN1Cc1cc(F)cc(F)c1)C(=O)O (stereo not drawn) [Example 20]	101 to 250	101 to 250	11 to 50	11 to 50	–	–	–	–
CN(CCCC(N)(CCCCB(O)O)C(=O)O)Cc1ccc2ccccc2c1 (stereo not drawn) [Example 120]	< 10	< 10	< 10	11 to 50	–	–	–	–
NC(CCCCB(O)O)(CCCNCCc1ccccc1)C(=O)O (stereo not drawn) [Example 67]	< 10	< 10	< 10	< 10	–	–	–	–
NC(CCCCB(O)O)(CCCN1CCCC1c1ccccc1C(F)(F)F)C(=O)O (stereo not drawn) [Example 51]	11 to 50	101 to 250	11 to 50	51 to 100	–	–	–	–
NC(CCCCB(O)O)(CCCN1CCN(Cc2ccc(F)cc2)CC1)C(=O)O (stereo not drawn) [Example 11]	–	–	–	–	11 to 50	11 to 50	< 10	11 to 50
NC(CCCCB(O)O)(CCCN1CCSCC1)C(=O)O (stereo not drawn) [Example 65]	11 to 50	> 400	11 to 50	51 to 100	–	–	–	–

Now from value to molecule:

Ki (human arginase II; [1]) [nM]	Ki (human arginase II; [2]) [nM]	Ki (human arginase I; [3]) [nM]	Ki (human arginase I; [4]) [nM]	Ki (human arginase II; [5]) [nM]	Ki (human arginase II; [6]) [nM]	Ki (human arginase I; [7]) [nM]	Ki (human arginase I; [8]) [nM]	SMILES
< 10	11 to 50	< 10	11 to 50	–	–	–	–	NC(CCCCB(O)O)(CCCN1CCC(Nc2ccccc2)CC1)C(=O)O (stereo not drawn) [Example 103]
< 10	11 to 50	< 10	11 to 50	–	–	–	–	NC(CCCCB(O)O)(CCCN1CCCC(c2ccccc2)C1)C(=O)O (stereo not drawn) [Example 26, 2-amino-6-borono-2-(3-(3-phenylpiperidin-1-yl)propyl)hexanoic acid]
< 10	11 to 50	< 10	< 10	–	–	–	–	NC(CCCCB(O)O)(CCCNC1CCCCC1)C(=O)O (stereo not drawn) [Example 77]
< 10	11 to 50	< 10	11 to 50	–	–	–	–	NC(CCCCB(O)O)(CCCN1CCc2ccccc2C1)C(=O)O (stereo not drawn) [Example 45]
< 10	11 to 50	< 10	11 to 50	–	–	–	–	NC(CCCCB(O)O)(CCCN1CCN(CCc2ccccc2)CC1)C(=O)O (stereo not drawn) [Example 14]
< 10	11 to 50	< 10	< 10	–	–	–	–	NC(CCCCB(O)O)(CCCN1CCC(NC(=O)Nc2ccc(Cl)c(Cl)c2)C1)C(=O)O (stereo not drawn) [Example 112]
< 10	11 to 50	< 10	< 10	–	–	–	–	NC(CCCCB(O)O)(CCCN1CCC(O)(Cc2ccccc2)CC1)C(=O)O (stereo not drawn) [Example 39]
< 10	11 to 50	< 10	11 to 50	–	–	–	–	NC(CCCCB(O)O)(CCCN1CCC(NS(=O)(=O)c2ccc(Cl)c(Cl)c2)C1)C(=O)O (stereo not drawn) [Example 114]

Reference: patent US9447122B2, “Arginase inhibitors and methods of use thereof” (AstraZeneca AB, priority 2010, dated 2016)
